Assay results reported in US20200261445A1, “USE OF SENOLYTIC AGENTS TO ELIMINATE PERSISTENT HIV RESERVOIRS” (The George Washington University, priority 2017, published 2020).

What was measured:
Bcl-2 family proteins = conditions: selectivity within the Bcl-2 family, Table 1; cited from earlier work
Bcl-xL = Bcl-xL (Homo sapiens, UniProt Q07817); conditions: Table 1; cited from earlier work
resting CD4+ T cells = assay: Cell cytotoxicity in HIV latency reservoir model cultures; assay type: cell-based, human; conditions: ABT-199 at 1 μM; not enough cells left to measure replication-competent virus (FIG. 9A)
Method: (§1) For each condition tested, up to 200×10^6 PBMC were thawed from leukapheresis material. An aliquot of PBMCs was stained with antibodies to CD3, CD4, CD8, HLA-DR, and CD69 for flow cytometry analysis (pre-selection sample). Resting CD4^+ T-cells were enriched from these PBMC by negative selection (Easysep CD4^+ T-cell enrichment kit, Stemcell Technologies) following the manufacturer's instructions. Cells were washed and re-suspended in 1 ml of 2% FBS PBS and an aliquot was stained as above (post-selection sample). To proceed, >98% pure resting CD4^+ T-cells in the negative fraction we required.
NK cells and CTL clones were added at 1:10 effector:target ratios, with or without the indicated latency reversing agents. Co-cultures were performed at 2×10^6 cells/ml in XVIVO-15 serum free medium (Lonza) that had been supplemented with penicillin-streptomycin, L-glutamine, 0.1 nM IL-7 (to support survival), 1 μM tenofovir, 1 μM nevirapine, 1 μM emtricitabine, 10 μM T20, 10 U/ml DNAse I (ProSpec) ([…]). […]
Co-cultures were harvested at 4 days post-initiation of co-culture. […] CD4^+ T-cells were then fixed in 2% paraformaldehyde, and analyzed by flow cytometry on an LSR-II instrument and with FlowJo software. […]

[1] = tested on: HIV latency reservoir (resting CD4+ T cells); assay: HIVE assay with quantitative viral outgrowth (IUPM), three HIV latency reservoir models; assay type: cell-based; conditions: A-463 only (100 nM per FIG. 9F); all three models; p<0.01
Method: as §1, with “required. […]” for “required.”
(§2) Co-cultures were harvested at 4 days post-initiation of co-culture. […] CD4^+ T-cells were then fixed in 2% paraformaldehyde, and analyzed by flow cytometry on an LSR-II instrument and with FlowJo software.
(§3) DNA quantification: 2×10^6 cells/condition were centrifuged and DNA, for ddPCR, was extracted from cell pellets using the Gentra Puregene kit (Qiagen), following the manufacturer's instructions. This DNA was then analyzed by digital droplet polymerase chain reaction (see below). Infectious virus quantification: The remaining cells, to be used for viral outgrowth assays, were incubated overnight in R10-50+4 nM IL-15SA (ALT-803) at a concentration of 2×10^6 cells/ml. These cells are then plated out in quantitative viral outgrowth assays (see below). […]

[2] = tested on: HIV latency reservoir (resting CD4+ T cells); assay: HIVE assay with ddPCR of total HIV DNA, three HIV latency reservoir models; assay type: cell-based; conditions: A-463 only (100 nM per FIG. 9E); all three models; p<0.01
Method: as §1, with “required. […]” for “required.”
as §2, §3

[3] = tested on: HIV latency reservoir models spiked into natural reservoirs; assay: 'Spiked' HIVE assay with QVOA (latency model cells spiked into natural reservoirs); assay type: cell-based; conditions: Bryostatin 10 nM, ABT-199 100 nM, HIV-specific CTLs, FIG. 10
Method: For experiments using CTL clones as effectors, clones were used at […] after their most recent re-stimulation. Specificity, functionality, and responsiveness of CTLs were confirmed by CD107a degranulation assays, as well as by HIV elimination assays the day before assay setup. Clones were washed extensively prior to addition to co-culture.
NK cells and CTL clones were added at 1:10 effector:target ratios, with or without the indicated latency reversing agents. […]
as §2, §3

Sequence of Bcl-xL (Q07817 whole entry): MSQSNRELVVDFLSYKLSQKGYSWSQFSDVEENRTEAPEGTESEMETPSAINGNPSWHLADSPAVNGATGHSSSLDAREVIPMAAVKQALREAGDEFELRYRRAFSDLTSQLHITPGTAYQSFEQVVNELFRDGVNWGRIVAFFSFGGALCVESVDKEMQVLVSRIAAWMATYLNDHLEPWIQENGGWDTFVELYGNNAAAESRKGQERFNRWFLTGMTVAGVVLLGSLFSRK

| Compound | Selective/pan (Bcl-2 family proteins) | Known Bcl-xL inhibition (Bcl-xL) | also measured |
| --- | --- | --- | --- |
| Cc1cc2c(C(C)C)c(O)c(O)c(C=O)c2c(O)c1-c1c(C)cc2c(C(C)C)c(O)c(O)c(C=O)c2c1O [AT101] | Pan | Yes |  |
| CC1(C)CCC(CN2CCN(c3ccc(C(=O)NS(=O)(=O)c4ccc(NCC5CCOCC5)c([N+](=O)[O-])c4)c(Oc4cnc5[nH]ccc5c4)c3)CC2)=C(c2ccc(Cl)cc2)C1 [ABT-199, Venetoclax] |  |  | cell cytotoxicity (resting CD4+ T cells): cell cytotoxicity |
| ABT-263 | Pan | Yes |  |
| Cc1nn(C)c(COc2ccc(N3CCN(S(=O)(=O)N(C)C)CC3)cc2)c1-c1cccc2c(CCCOc3cccc4ccccc34)c(C(=O)O)n(CCN3CCOCC3)c12 [A-1210477] | Selective |  |  |
| CC(C)c1ccccc1Cc1cc(C(=O)Nc2ccc(S(=O)(=O)c3ccccc3C(C)(C)C)cc2)c(O)c(O)c1O [TW-37] | Pan | Yes |  |
| CC(C)C(C(=O)O)N1C(=O)/C(=C\c2ccc(Br)cc2)SC1=S (centres unmarked) [BH31-1] | Pan | Yes |  |
| CC(C)=CCC[C@]1(C)C=Cc2c(O)c3c(c(CC=C(C)C)c2O1)O[C@]12C(=C[C@@H]4C[C@H]1C(C)(C)O[C@@]2(C/C=C(/C)C(=O)O)C4=O)C3=O [Gambogic Acid] | Pan | Yes |  |
| O=C(O)CSc1cc(NS(=O)(=O)c2ccc(Br)cc2)c2ccccc2c1O [UMI-77] | Selective |  |  |
| Cc1c(-c2ccc(N3CCc4cccc(C(=O)Nc5nc6ccccc6s5)c4C3)nc2C(=O)O)cnn1CC12CC3CC(CC(C3)C1)C2 [A-1331852] | Selective |  |  |
| CN(C)CC#Cc1ccc(OCCCc2sc(N3CCc4cccc(C(=O)Nc5nc6ccccc6s5)c4C3)nc2C(=O)O)c(F)c1 [A-1155463] | Selective |  | infectious replicative competent (IUPM) [1]: statistically significant reduction; total HIV DNA copies [2]: statistically significant reduction |
| Cc1cc2c(C(=O)NC[C@H](C)c3ccccc3)c(O)c(O)cc2c(O)c1-c1c(C)cc2c(C(=O)NC[C@H](C)c3ccccc3)c(O)c(O)cc2c1O [Sabutoclax] | Pan | Yes |  |
| CCC/C=C/C=C/C(=O)O[C@H]1/C(=C/C(=O)OC)C[C@H]2C[C@H]([C@@H](C)O)OC(=O)C[C@H](O)C[C@@H]3C[C@H](OC(C)=O)C(C)(C)[C@](O)(C[C@@H]4C/C(=C/C(=O)OC)C[C@H](/C=C/C(C)(C)[C@]1(O)O2)O4)O3 [Bryostatin, bryostatin 1] |  |  | IUPM compared to the NoTx condition [3]: did not lead to significant decreases |
